Read-outs that look alike come from different tables or passages of the source.
Assays:
IL-8 release = experiment: In vitro inhibition of LPS-induced IL-8 release in ECV304 endothelial cells (ELISA); type: cell-based, human; conditions: for IC50: 1 hour pre-incubation, supernatant after one night, concentration giving 50% of highest obtainable inhibition, read-out: IL-8 release potency IC50; for IL-8 release efficacy (%): highest obtainable inhibition
Description: A) Release of Interleukin 8 (IL-8)
A human endothelial immortalized cell line (ECV304) was obtained from ATTC (Rockville, Md.) and grown in Medium 199, mod. Earle's salts (GIBCO, Life Technologies, Grand Island, N.Y.), supplemented with 20% Fetal Calf Serum (GIBCO), 100 U/ml of penicillin and 100 µg/ml of streptomycin (SIGMA, St. Louis, Mo.) in wet atmosphere with 5% CO2 at 37° C.
The cells were cultivated on 96 well plates up to obtain a confluent monolayer. The compounds to be evaluated were dissolved in DMSO at 10^−2M and diluted with culture medium.
The compounds were pre-incubated with the cells 1 hour before the challenge.
The release of IL-8 was induced by adding 0.66 µg/ml of lipopolysaccharide B (E. coli 055:B5, Difco, Detroit, Mich.) in a final volume of 200 µl.
After one night, the supernatant was collected for the IL-8 test.
The specific immunoreactivity for IL-8 in the culture supernatant was measured with ELISA kit (Amersham, UK).
Results were expressed as the highest obtainable inhibition (efficacy) and, whether possible, as the concentration at which 50% of such effect (TC50) is obtained.

superoxide anion release = experiment: In vitro inhibition of FMLP-stimulated superoxide anion release from neutrophils (Lucigenin-enhanced chemiluminescence); type: cell-based, human; conditions: neutrophils of healthy volunteers, 30 minutes pre-incubation at 37° C., FLMP stimulation, read-out: O2 release IC50
Description: B) Release of Superoxide Anions
Neutrophils were separated from venous blood of healthy volunteers by centrifugation on Ficoll-Hypaque, followed by sedimentation on 6% dextrane and osmotic lysis of erythrocytes. Neutrophils were then washed and resuspended in a medium made of RPMI-1640 supplemented with 5% foetal calf serum and 1.34 mmoles/l of disodium dihydrate EDTA. The cells were maintained for 24 hours at 4° C. and before the test the suspension was centrifugated and resuspended in HBSS (Hanks' balanced salt solution). The vitality and the purity of the neutrophil preparation was verified by dyeing with Trypan blue and Turk blue.
The superoxide anions were measured by using Lucigenin (bis-N-methylacridinium nitrate)-enhanced chemiluminescence technique.
Neutrophils (2×10^6 cells/ml) were pre-incubated for 30 minutes at 37° C. in 900 µl of HBSS with and without the tested compound (reading system).
The production of superoxide anions was measured with a Lumac/3M bio-counter after addition of 100 µl of a solution in HBSS of Lucigenin (2 mmoles/l) and N-formyl-L-methionyl-L-leucyl-L-phenylalanine (FLMP) as stimulating agent at the concentration of […] to the reading system. FLMP was dissolved in DMSO (1×10^−2 M) and further diluted in HBSS. The compound to be tested was dissolved in DMSO at the concentration of 10^−2 M. Lower concentrations, in DMSO, were prepared from that solution, and tested. The DMSO amount present in the reading system was lower than 1%.
The luminosity values obtained at the peak, for each tested concentration of the compound, were transformed in inhibition percentage in comparison with the reference.
The concentration able to inhibit the production of superoxide anion at 50% (IC50) was calculated from the obtained “dose-response” curve.

[1] = test system: neutrophilia induced by LPS; experiment: In vivo inhibition of neutrophilia induced by LPS after repeated administrations (bronchoalveolar lavage); design: species or system rat; conditions: Sprague-Dawley rats, compound i.p. twice a day for 6 days and 7th day 1 hour before and 5 hours after LPS 6 mg/kg i.p.; BALF 24 hours after LPS
Description: In vivo Pharmacological Activity
Male Sprague-Dawley rats weighing between 200 and 300 g were used.
The rats used in the experiments were not evidently infected. The animals were maintained in standard conditions for 7 days before being sacrificed.
LPS (E. coli lipopolisaccharide) (endotoxin; 055:B5 serum-type; Sigma Chemical Co., St. Louis, Mo.) was dissolved in saline sterile solution and was administered by intraperitoneal injection (i.p.) at a dose of 6 mg/kg (1 ml/kg). Analogously the saline solution and/or the carrier (saline solution+0.5% Tween 20) were injected into the control animals.
Compound Administration (Prophylactic Treatment)
Each compound was administered by i.p. injection twice a day for 6 days, the 7th day 1 hour before and 5 hours after LPS administration. The compounds were suspended with 0.5% Tween 20 in the saline solution.
After 24 hours from the LPS injection rats were sacrificed with an overdose of nembutal (100 mg/kg i.p.). The trachea was incannulated and the lung was washed by instilling two 5 ml aliquots of PBS (phosphate buffer saline) at 37° C. and the fluid was immediately removed. The fluid was again injected and the procedure was altogether repeated three times for each aliquot.
Cell Counting and Differentiation
200 μl of BALF (bronchoalveolar lavage fluid) were diluted in 1 ml of cold water and 19 ml of Isoton. The overall number of cells was counted twice by using Contraves autolyser 800. When the total number was lower than 2000, BALFs were centrifugated at 800 rpm for 10 minutes in order to separate the cells from the supernatant. The supernatants were discharged and the cells resuspended in a small amount of PBS. For the cytological evaluation, 50 μl of the solution with the resuspended cells were centrifugated for 1 minute at 1300 rpm by using a Shandon Cytospin centrifuge. The slides were fixed in acetone and dyed with DiffQuick. The differential counts of cells were performed on each slide by counting 200 cells at random; cellular types were classified as neutrophils, eosinophils and mononuclear cells according to morphological standard criteria.

[2] = Homo sapiens, ECV-304, LPS 0.66 μg/ml

Row | Molecule | IC50 (IL-8 release; LPS 0.66 μg/ml) | IL-8 release efficacy (%) (IL-8 release; LPS 0.66 μg/ml) | IC50 (superoxide anion release) | Inhibition (%) [1] | IC50 (IL-8 release; [2]) | IC50 (superoxide anion release; Homo sapiens, Neutrophil)
1 | 3′-de(dimethylamino)-erythromycin A (E)-9-O-[2-methoxy-ethoxy]-methyl]-oxime] [Compound 5] | 12 µM | 55 ± 0.9% | > 100 µM | – | – | –
2 | 3′-de(dimethylamino)-erythromycin A (E)-9-[O-[2-[6-[(thiazol-2-ylmethyl)-amino]-hexyl-amino]-ethyl]-oxime] [Compound 8] | – | 19 ± 1% | 3.5 ± 0.2 µM | – | – | –
3 | 3′-de(dimethylamino)-erythromycin A (E)-9-[O-[2-[(6-amino-hexyl)-amino]-ethyl]-oxime] [Compound 6] | 7.7 ± 0.3 µM | 37 ± 10% | 9.9 ± 0.69 µM | −11% | – | –
4 | 3′-de(dimethylamino)erythromycin A (E)-9-[O-[2-[6-(benzylamino)-hexylamino]-ethyl]-oxime] [Compound 9] | – | – | 3.5 ± 0.5 µM | −96% | – | –
5 | CCC1OC(=O)C(C)C(OC2CC(C)(OC)C(O)C(C)O2)C(C)C(OC2OC(C)C=CC2O)C(C)(O)CC(C)C(=NO)C(C)C(O)C1(C)O (stereo not shown) [Compound 1, 3′-de(dimethylamino)-3′,4′-dehydro-erythromycin A Oxime] | – | 29% | 35.3 ± 5.4 µM | – | – | –
6 | CC[C@H]1OC(=O)[C@H](C)[C@@H](O[C@H]2C[C@@](C)(OC)[C@@H](O)[C@H](C)O2)[C@H](C)[C@@H](O[C@@H]2O[C@H](C)CC[C@H]2O)[C@](C)(O)C[C@@H](C)C(=NO)[C@H](C)[C@@H](O)[C@]1(C)O [Compound 2, 3′-de(dimethylamino)-erythromycin A Oxime] | – | 29% | 11.4 ± 2.9 µM | −31% | – | –
7 | CCC1OC(=O)C(C)C(OC2CC(C)(OC)C(O)C(C)O2)C(C)C(OC2OC(C)CCC2O)C(C)(O)CC(C)C(=NOCCOCCNCc2ccccc2)C(C)C(O)C1(C)O (stereo not shown) [Compound 11, 3′-de(dimethylamino)-erythromycin A (E)-9-[O-[2-[2-(benzylaminol)-ethoxy]-ethyl]-oxime]] | – | 22 ± 4% | 5 µM | – | – | –
8 | CCC1OC(=O)C(C)C(OC2CC(C)(OC)C(O)C(C)O2)C(C)C(OC2OC(C)CCC2O)C(C)(O)CC(C)C(=NOCCNCCNCc2nccs2)C(C)C(O)C1(C)O (stereo not shown) [Compound 16, 3′-de(dimethylamino)-erythromycin A (E)-9-[O-[2-[2-[(thiazol-2-ylmethyl)-amino]-ethyl-amino]-ethyl]-oxime]] | – | 35% | 14.3 µM | – | – | –
9 | CC[C@H]1OC(=O)[C@H](C)[C@@H](O[C@H]2C[C@@](C)(OC)[C@@H](O)[C@H](C)O2)[C@H](C)[C@@H](O[C@@H]2O[C@H](C)C[C@H](N(C)C)[C@H]2O)[C@](C)(OC)C[C@@H](C)C(=O)[C@H](C)[C@@H](O)[C@]1(C)O [clarithromycin, reference compound] | – | 48 ± 6% | – | −47% | 8.9 ± 3.2 µM | 49.2 ± 1.9 µM
10 | CC[C@H]1OC(=O)[C@H](C)[C@@H](O[C@H]2C[C@@](C)(OC)[C@@H](O)[C@H](C)O2)[C@H](C)[C@@H](O[C@@H]2O[C@H](C)C[C@H](N(C)C)[C@H]2O)[C@](C)(O)C[C@@H](C)C(=O)[C@H](C)[C@@H](O)[C@]1(C)O [erythromycin, reference compound] | – | 27 ± 1% | – | −46% | – | > 100 µM
11 | CC[C@H]1OC(=O)[C@H](C)[C@@H](O[C@H]2C[C@@](C)(OC)[C@@H](O)[C@H](C)O2)[C@H](C)[C@@H](O[C@@H]2O[C@H](C)C[C@H](N(C)C)[C@H]2O)[C@](C)(O)C[C@@H](C)/C(=N\OCOCCOC)[C@H](C)[C@@H](O)[C@]1(C)O [roxithromycin, reference compound] | – | 43 ± 6% | – | −50% | 5.5 ± 1.5 µM | 89 ± 5 µM

Source: patent publication US6455576B1, “Macrolides with anti-inflammatory activity” (Zambon Group S.p.A., priority 1999, dated 2002)
